Like-named read-outs stand apart in the source and are kept apart here.
Tests used:
[1] = target: T1, MAP3K6 (Homo sapiens, UniProt O95382); test: binding to immobilized V16742 (IVA1/IVA2, HeLa lysate, MS)
T1 construct: endogenous in cells; host or cells: HeLa S3
T1 sequence (O95382 1-1288): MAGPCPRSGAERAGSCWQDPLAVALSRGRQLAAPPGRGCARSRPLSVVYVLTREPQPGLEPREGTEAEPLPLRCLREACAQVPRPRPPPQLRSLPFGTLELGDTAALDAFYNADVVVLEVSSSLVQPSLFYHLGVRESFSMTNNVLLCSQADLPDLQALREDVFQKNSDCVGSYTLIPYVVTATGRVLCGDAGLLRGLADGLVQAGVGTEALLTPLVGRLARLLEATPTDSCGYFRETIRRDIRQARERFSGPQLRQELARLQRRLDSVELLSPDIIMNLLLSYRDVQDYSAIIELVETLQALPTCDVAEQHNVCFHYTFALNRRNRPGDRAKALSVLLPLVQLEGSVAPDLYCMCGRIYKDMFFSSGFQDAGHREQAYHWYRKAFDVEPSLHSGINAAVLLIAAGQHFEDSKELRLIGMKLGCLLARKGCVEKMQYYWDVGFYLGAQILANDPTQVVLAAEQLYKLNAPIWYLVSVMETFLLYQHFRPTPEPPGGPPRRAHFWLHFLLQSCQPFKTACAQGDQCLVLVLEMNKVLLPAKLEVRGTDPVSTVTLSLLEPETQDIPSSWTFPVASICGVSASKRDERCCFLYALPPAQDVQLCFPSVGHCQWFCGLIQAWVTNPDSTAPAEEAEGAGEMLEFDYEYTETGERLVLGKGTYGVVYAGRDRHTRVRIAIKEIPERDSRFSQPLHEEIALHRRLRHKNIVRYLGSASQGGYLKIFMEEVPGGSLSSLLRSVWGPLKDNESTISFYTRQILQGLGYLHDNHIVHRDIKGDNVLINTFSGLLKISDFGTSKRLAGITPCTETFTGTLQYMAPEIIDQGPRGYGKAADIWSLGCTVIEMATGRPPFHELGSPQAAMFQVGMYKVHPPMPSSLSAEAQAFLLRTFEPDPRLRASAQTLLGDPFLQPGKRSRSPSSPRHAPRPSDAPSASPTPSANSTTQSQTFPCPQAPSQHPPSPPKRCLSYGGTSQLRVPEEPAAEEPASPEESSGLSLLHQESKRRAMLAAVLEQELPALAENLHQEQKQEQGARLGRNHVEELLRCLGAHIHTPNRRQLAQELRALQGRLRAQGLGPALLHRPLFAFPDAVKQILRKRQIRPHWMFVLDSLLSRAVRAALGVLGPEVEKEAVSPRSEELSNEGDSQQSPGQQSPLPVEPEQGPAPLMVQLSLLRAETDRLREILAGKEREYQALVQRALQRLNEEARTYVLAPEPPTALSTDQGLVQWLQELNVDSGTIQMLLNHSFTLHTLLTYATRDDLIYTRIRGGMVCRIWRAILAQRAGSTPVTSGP

[2] = target: T2, GAK (Homo sapiens, UniProt O14976); test: as above
T2 sequence (O14976 1-1311): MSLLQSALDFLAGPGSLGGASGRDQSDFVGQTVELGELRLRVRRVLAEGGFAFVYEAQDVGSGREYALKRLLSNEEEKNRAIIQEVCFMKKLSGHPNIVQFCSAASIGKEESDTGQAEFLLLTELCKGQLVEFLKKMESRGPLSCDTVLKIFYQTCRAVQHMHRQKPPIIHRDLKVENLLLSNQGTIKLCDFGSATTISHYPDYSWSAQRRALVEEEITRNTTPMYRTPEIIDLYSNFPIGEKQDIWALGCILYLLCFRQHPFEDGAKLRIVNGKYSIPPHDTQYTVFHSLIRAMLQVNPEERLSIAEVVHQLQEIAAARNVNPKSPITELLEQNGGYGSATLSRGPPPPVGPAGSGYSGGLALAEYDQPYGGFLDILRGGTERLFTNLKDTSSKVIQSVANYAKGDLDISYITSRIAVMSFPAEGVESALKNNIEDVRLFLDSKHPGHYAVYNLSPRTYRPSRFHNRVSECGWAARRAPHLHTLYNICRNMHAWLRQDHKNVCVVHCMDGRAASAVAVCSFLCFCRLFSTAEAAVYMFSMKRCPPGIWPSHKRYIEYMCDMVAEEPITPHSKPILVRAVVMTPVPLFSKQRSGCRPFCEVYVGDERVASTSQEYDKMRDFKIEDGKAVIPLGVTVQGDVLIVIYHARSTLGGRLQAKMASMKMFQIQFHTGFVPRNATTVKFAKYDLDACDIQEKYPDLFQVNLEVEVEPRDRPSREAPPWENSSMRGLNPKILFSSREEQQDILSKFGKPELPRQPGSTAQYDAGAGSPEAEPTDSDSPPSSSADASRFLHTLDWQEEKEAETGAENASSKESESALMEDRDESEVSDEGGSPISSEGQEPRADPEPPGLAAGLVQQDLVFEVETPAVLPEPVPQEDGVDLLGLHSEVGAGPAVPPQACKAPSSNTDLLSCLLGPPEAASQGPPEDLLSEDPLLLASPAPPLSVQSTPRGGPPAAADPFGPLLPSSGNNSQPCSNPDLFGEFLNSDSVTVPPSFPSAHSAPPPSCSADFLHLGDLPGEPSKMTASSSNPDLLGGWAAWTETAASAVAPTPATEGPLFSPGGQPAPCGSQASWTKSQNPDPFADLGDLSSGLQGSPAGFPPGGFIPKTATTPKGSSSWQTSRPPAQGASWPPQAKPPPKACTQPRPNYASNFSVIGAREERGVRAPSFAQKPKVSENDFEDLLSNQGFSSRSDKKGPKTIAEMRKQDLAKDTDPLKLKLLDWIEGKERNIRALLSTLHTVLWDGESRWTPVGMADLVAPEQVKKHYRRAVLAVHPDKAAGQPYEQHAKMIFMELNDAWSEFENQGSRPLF

Structure (SMILES)	Percent bound at various 16742 conc ([1]; Experiment 1, 8.74 μM 16742) [%]	Percent bound at various 16742 conc ([1]; Experiment 1, 52 μM 16742) [%]	Kd ([1]; Experiment 1, read-out: Kd) [µM]	Percent bound at various 16742 conc ([1]; Experiment 2, 1.87 μM 16742) [%]	Percent bound at various 16742 conc ([1]; Experiment 2, 8.74 μM 16742) [%]	Percent bound at various 16742 conc ([1]; Experiment 2, 52 μM 16742) [%]	Kd ([1]; Experiment 2, read-out: Kd) [µM]	Kd ([1]; average of two experiments, read-out: Kd Avg) [µM]	Percent bound at 1.87 μM 16742 conc ([2]; EXPERIMENT 1) [%]	Percent bound at 8.74 μM 16742 conc ([2]; EXPERIMENT 1) [%]	Percent bound at 52 μM 16742 conc ([2]; EXPERIMENT 1) [%]	Kd ([2]; EXPERIMENT 1, read-out: Kd) [µM]	Percent bound at 1.87 μM 16742 conc ([2]; EXPERIMENT 2) [%]	Percent bound at 8.74 μM 16742 conc ([2]; EXPERIMENT 2) [%]	Percent bound at 52 μM 16742 conc ([2]; EXPERIMENT 2) [%]	Kd ([2]; EXPERIMENT 2, read-out: Kd) [µM]	Kd ([2]; read-out: Kd Avg) [µM]
CC(C)n1c(=O)ccc2cnc(Nc3ccc(OCCN)cc3)nc21 [V16742]	3.57	51.68	57.7	2.67	3.94	13.37	326	192									
CC(C)n1c(=O)ccc2cnc(Nc3ccc(OCCN)cc3)nc21 [compound 16742]									8.35	29.77	69.07	21.9	6.15	27.34	63.94	26.7	24.3
